Experimental data reported in US4883796A, “Oxime ethers of 2,6-dioxabicyclo(3.3.0)octanones, and compositions and methods for treatment of a cardiac disease or circulatory with them” (Heinrich Mack Nachf., priority 1987, dated 1989).

How the values were obtained:
[1] = Reduction of the arterial mean pressure in narcotised rabbits, i.d.; type: in vivo; details: Oryctolagus cuniculus, intraduodenal, read-out: ED30 (mmHg), reduction of the arterial mean pressure
Procedure: Reduction of the arterial mean pressure in narcotised rabbits.
The substance was administered i.d.

isolated aorta strips [2] = test: inhibition of potassium chloride-induced contractions on isolated aorta strips, rat; type: cell-based; details: read-out: ED50, inhibition of potassium chloride-induced contractions
[3] = Influence on systolic arterial pressure and heart rate of conscious normotensive beagle dogs, perorally; type: in vivo
Procedure: Influence on the systolic arterial pressure (SAP) and the heart rate
(HR) of concious normotensive beagle dogs. Substance was administered

isolated aorta strips [4] = test: inhibition of potassium chloride-induced contractions on isolated aorta strips, rabbit; type: cell-based; details: read-out: ED50, inhibition of potassium chloride-induced contractions
Isoprenaline tachycardia = test: Inhibition of Isoprenaline tachycardia in narcotised, despinalised rats; type: in vivo; details: Rattus norvegicus, prophylactic
Source text: Inhibition of Isoprenaline tachycardia in narcotised,
despinalised rats after prophylactic, intravenous or
intraduodenal application

[5] = orientating toxicity, mice, perorally; details: mouse, in vivo, po, read-out: dose withstood without clinical symptoms and without fatalities
[6] = tested on: Lypressin-induced T-wave elevation in the ECG; test: Influence on the Lypressin-induced T-wave elevation in the ECG of narcotised rats; type: in vivo; details: for ED50: Rattus norvegicus, po, 0.25 h, perorally 15 minutes before Lypressin; for Length of action at ED50-Dose: perorally
Procedure: Influence on the T-wave elevation in the ECG of narcotised
rats, which was induced by intravenous bolus injection of
Lypressin. The substances were administered perorally 15
minutes and at various times before the Lypressin injection

[7] = Cardiovascular effects after intravenous administration to narcotised rats with opened thorax and artificial respiration; type: in vivo; details: 1.0 mg/kg i.v.
Source text: |Cardiovascular effects of the compound of example 3 after intravenous |administration to narcotised rats (Pentobarbital) with opened thorax and |artificial respiration.

[8] = Cardiovascular effects after i.d. administration to narcotised rats with opened thorax and artificial respiration; type: in vivo; details: 30 mg/kg i.d.
Source text: |Cardiovascular effects of example 3 after i.d. administration to |narcotised rats (Pentobarbital) with opened thorax and artificial |respiration.

CC(C)NCC(O)CON=C1CO[C@H]2[C@@H]1OC[C@H]2O[N+](=O)[O-] (stereo partly drawn) [Example 1, 4-(2-Hydroxy-3-isopropylamino-propyl)-oximino-2,6-dioxabicyclo[3.3.0]octan-8-endo-ol-nitrate]
ED (30 mmHg) [1]: 24.2 mg/kg | IC50 (isolated aorta strips [2]): 24 µM | HR changes ([3]; 10.0 mg/kg perorally, 0.5 h): -15 ± 3 Schl/M | SAP changes ([3]; 10.0 mg/kg perorally, 0.5 h): -36 ± 2 mmHg | HR (heart rate) ([3]; 10.0 mg/kg perorally, 0.5 h, 0 h value 88 ± 3): 73 ± 3 Schl/M | SAP (systolic arterial pressure) ([3]; 10.0 mg/kg perorally, 0.5 h, 0 h value 134 ± 3): 98 ± 3 mmHg | HR changes ([3]; 10.0 mg/kg perorally, 1 h): -16 ± 4 Schl/M | SAP changes ([3]; 10.0 mg/kg perorally, 1 h): -32 ± 2 mmHg | HR (heart rate) ([3]; 10.0 mg/kg perorally, 1 h, 0 h value 88 ± 3): 72 ± 5 Schl/M | SAP (systolic arterial pressure) ([3]; 10.0 mg/kg perorally, 1 h, 0 h value 134 ± 3): 102 ± 4 mmHg | HR changes ([3]; 10.0 mg/kg perorally, 2 h): -14 ± 2 Schl/M | SAP changes ([3]; 10.0 mg/kg perorally, 2 h): -20 ± 1 mmHg | HR (heart rate) ([3]; 10.0 mg/kg perorally, 2 h, 0 h value 88 ± 3): 74 ± 6 Schl/M | SAP (systolic arterial pressure) ([3]; 10.0 mg/kg perorally, 2 h, 0 h value 134 ± 3): 114 ± 3 mmHg | HR changes ([3]; 10.0 mg/kg perorally, 3 h): -10 ± 3 Schl/M | SAP changes ([3]; 10.0 mg/kg perorally, 3 h): -16 ± 2 mmHg | HR (heart rate) ([3]; 10.0 mg/kg perorally, 3 h, 0 h value 88 ± 3): 78 ± 4 Schl/M | SAP (systolic arterial pressure) ([3]; 10.0 mg/kg perorally, 3 h, 0 h value 134 ± 3): 118 ± 3 mmHg | HR changes ([3]; 10.0 mg/kg perorally, 4 h): -9 ± 2 Schl/M | SAP changes ([3]; 10.0 mg/kg perorally, 4 h): -19 ± 3 mmHg | HR (heart rate) ([3]; 10.0 mg/kg perorally, 4 h, 0 h value 88 ± 3): 79 ± 5 Schl/M | SAP (systolic arterial pressure) ([3]; 10.0 mg/kg perorally, 4 h, 0 h value 134 ± 3): 115 ± 3 mmHg | IC50 (isolated aorta strips [4]; Oryctolagus cuniculus): 5.9 µM | ED50 (Isoprenaline tachycardia; iv): 11 mg/kg | ED50 (Isoprenaline tachycardia; i.d.): 82.6 mg/kg | NOAEL [5]: 500 mg/kg | ED50 [6]: 53.8 mg/kg | Length of action at ED50-Dose [6]: 240 min

CC(C)NCC(O)CON=C1COC2C(O[N+](=O)[O-])COC12 (stereo not drawn) [Example 2, 4-(2-Hydroxy-3-isopropylamino-propyl)-oximino-2,6-dioxabicyclo[3.3.0]octan-8-exo-ol-nitrate]
IC50 (isolated aorta strips [2]): 472 µM | IC50 (isolated aorta strips [4]): 4000 µM

CC(C)(C)NCC(O)CON=C1CO[C@H]2[C@@H]1OC[C@H]2O[N+](=O)[O-] (stereo partly drawn) [Example 3, 4-(3-tert.-Butylamino-2-hydroxy-propyl)-oximino-2,6-dioxabicyclo[3.3.0]octan-8-endo-ol-nitrate]
ED (30 mmHg) [1]: 22.8 mg/kg | HR changes ([3]; 5.0 mg/kg perorally, 0.5 h): -13 ± 2 Schl/M | SAP changes ([3]; 5.0 mg/kg perorally, 0.5 h): -28 ± 6 mmHg | HR (heart rate) ([3]; 5.0 mg/kg perorally, 0.5 h, 0 h value 95 ± 8): 82 ± 7 Schl/M | SAP (systolic arterial pressure) ([3]; 5.0 mg/kg perorally, 0.5 h, 0 h value 137 ± 7): 109 ± 4 mmHg | HR changes ([3]; 5.0 mg/kg perorally, 1 h): -20 ± 5 Schl/M | SAP changes ([3]; 5.0 mg/kg perorally, 1 h): -31 ± 5 mmHg | HR (heart rate) ([3]; 5.0 mg/kg perorally, 1 h, 0 h value 95 ± 8): 75 ± 5 Schl/M | SAP (systolic arterial pressure) ([3]; 5.0 mg/kg perorally, 1 h, 0 h value 137 ± 7): 106 ± 2 mmHg | HR changes ([3]; 5.0 mg/kg perorally, 2 h): -24 ± 6 Schl/M | SAP changes ([3]; 5.0 mg/kg perorally, 2 h): -21 ± 2 mmHg | HR (heart rate) ([3]; 5.0 mg/kg perorally, 2 h, 0 h value 95 ± 8): 70 ± 6 Schl/M | SAP (systolic arterial pressure) ([3]; 5.0 mg/kg perorally, 2 h, 0 h value 137 ± 7): 116 ± 5 mmHg | HR changes ([3]; 5.0 mg/kg perorally, 3 h): -19 ± 5 Schl/M | SAP changes ([3]; 5.0 mg/kg perorally, 3 h): -15 ± 4 mmHg | HR (heart rate) ([3]; 5.0 mg/kg perorally, 3 h, 0 h value 95 ± 8): 76 ± 4 Schl/M | SAP (systolic arterial pressure) ([3]; 5.0 mg/kg perorally, 3 h, 0 h value 137 ± 7): 122 ± 4 mmHg | HR changes ([3]; 5.0 mg/kg perorally, 4 h): -14 ± 4 Schl/M | SAP changes ([3]; 5.0 mg/kg perorally, 4 h): -9 ± 3 mmHg | HR (heart rate) ([3]; 5.0 mg/kg perorally, 4 h, 0 h value 95 ± 8): 81 ± 4 Schl/M | SAP (systolic arterial pressure) ([3]; 5.0 mg/kg perorally, 4 h, 0 h value 137 ± 7): 128 ± 7 mmHg | ED50 (Isoprenaline tachycardia; iv): 4.6 mg/kg | ED50 (Isoprenaline tachycardia; i.d.): 74.6 mg/kg | NOAEL [5]: 500 mg/kg | BAF, changes [7]: -34 ± 5 mL/min | BAF, length of action [7]: 109 min | BAF, maximum efficacy [7]: 1.3 ± 0.3 min | CO, changes [7]: -0.09 ± 0.02 L/min | CO, length of action [7]: 113 ± 21 min | CO, maximum efficacy [7]: 5 ± 2 min | HR changes [7]: -13 ± 10 beats/min | HR, length of action [7]: > 114 min | HR, maximum efficacy [7]: 7 ± 3 min | LV dp/dt, changes [7]: -811 ± 116 mmHg/s | LV dp/dt, length of action [7]: 107 ± 12 min | LV dp/dt, maximum efficacy [7]: 6.8 ± 5 min | LVEDP, changes [7]: 0.7 ± 0.7 mmHg | LVEDP, length of action [7]: 51 ± 28 min | LVEDP, maximum efficacy [7]: 9.3 ± 8 min | LVP, changes [7]: -38 ± 2 mmHg | LVP, length of action [7]: 103 ± 28 min | LVP, maximum efficacy [7]: 1.7 ± 0.4 min | MAP, changes [7]: -36 ± 20 mmHg | MAP, length of action [7]: 111 ± 15 min | MAP, maximum efficacy [7]: 1.2 ± 0.0 min | PAP, changes [7]: -5 ± 2 mmHg | PAP, length of action [7]: 50 ± 18 min | PAP, maximum efficacy [7]: 3.0 ± 0.1 min | SV, changes [7]: +0.3 ± 0.5 ml/min | SV, length of action [7]: 31 ± 24 min | SV, maximum efficacy [7]: 2 ± 1 min | TPVR, changes [7]: -43 ± 4 mmHg/ml | TPVR, length of action [7]: 13 ± 8 min | TPVR, maximum efficacy [7]: 1.0 ± 1.0 min | CO (cardiac minute volume), efficacy of the substance ([7]; previous value 0.83 ± 0.04): 0.74 ± 0.08 L/min | LVEDP (left ventricular end diastolic pressure), efficacy of the substance ([7]; previous value 3.8 ± 1.0): 3.1 ± 1.0 mmHg | SV (cardiac output), efficacy of the substance ([7]; previous value 6.0 ± 0.4): 6.3 ± 0.6 mL/min | PAP (blood pressure in the A. pulmonalis), efficacy of the substance ([7]; previous value 22 ± 3): 17 ± 2 mmHg | BAF (blood flow in the A femoralis), efficacy of the substance ([7]; previous value 73 ± 16): 40 ± 11 mL/min | MAP (mean arterial blood pressure), efficacy of the substance ([7]; previous value 117 ± 5): 81 ± 5 mmHg | LVP (left ventricular blood pressure), efficacy of the substance ([7]; previous value 130 ± 12): 92 ± 12 mmHg | HR (cardiac frequency), efficacy of the substance ([7]; previous value 140 ± 8): 127 ± 4 beats/min | TPVR (total peripheral vascular resistence), efficacy of the substance ([7]; previous value 142 ± 9): 99 ± 6 mmHg/ml | LV dp/dt (maximum left ventricular pressure increase rate), efficacy of the substance ([7]; previous value 2558 ± 141): 1747 ± 84 mmHg/s | ED50 [6]: 50.8 mg/kg | Length of action at ED50-Dose [6]: 240 min | BAF, changes [8]: -23 ± 5 mL/min | BAF, length of action [8]: > 167 min | BAF, maximum efficacy [8]: 42 ± 8 min | CO, changes [8]: -0.09 ± 0.02 L/min | CO, length of action [8]: > 167 min | CO, maximum efficacy [8]: 62 ± 8 min | HR changes [8]: -23 ± 4 beats/min | HR, length of action [8]: > 167 min | HR, maximum efficacy [8]: 78 ± 44 min | LV dp/dt, changes [8]: -879 ± 90 mmHg/s | LV dp/dt, length of action [8]: > 132 min | LV dp/dt, maximum efficacy [8]: 76 ± 10 min | LVEDP, changes [8]: -2.3 ± 0.9 mmHg | LVEDP, length of action [8]: 77 ± 8 min | LVEDP, maximum efficacy [8]: 38 ± 27 min | LVP, changes [8]: -38 ± 11 mmHg | LVP, length of action [8]: > 153 min | LVP, maximum efficacy [8]: 65 ± 17 min | MAP, changes [8]: -25 ± 4 mmHg | MAP, length of action [8]: > 167 min | MAP, maximum efficacy [8]: 58 ± 12 min | PAP, changes [8]: -4.3 ± 5 mmHg | PAP, length of action [8]: 111 ± 16 min | PAP, maximum efficacy [8]: 33 ± 11 min | SV, changes [8]: +0.5 ± 0.07 ml/min | SV, length of action [8]: > 167 min | SV, maximum efficacy [8]: 33 ± 3 min | TPVR, changes [8]: -23 ± 3 mmHg/ml | TPVR, length of action [8]: > 136 min | TPVR, maximum efficacy [8]: 39 ± 5 min | CO (cardiac minute volume), efficacy of the substance ([8]; previous value 0.75 ± 0.03): 0.66 ± 0.05 L/min | LVEDP (left ventricular end diastolic pressure), efficacy of the substance ([8]; previous value 3.8 ± 1): 1.5 ± 2 mmHg | SV (cardiac output), efficacy of the substance ([8]; previous value 5.3 ± 0.4): 5.8 ± 0.3 mL/min | PAP (blood pressure in the A. pulmonalis), efficacy of the substance ([8]; previous value 22.8 ± 6): 18.5 ± 7 mmHg | BAF (blood flow in the A femoralis), efficacy of the substance ([8]; previous value 70 ± 4): 47 ± 23 mL/min | MAP (mean arterial blood pressure), efficacy of the substance ([8]; previous value 116 ± 7): 91 ± 12 mmHg | LVP (left ventricular blood pressure), efficacy of the substance ([8]; previous value 133 ± 9): 95 ± 10 mmHg | HR (cardiac frequency), efficacy of the substance ([8]; previous value 142 ± 5): 119 ± 7 beats/min | TPVR (total peripheral vascular resistence), efficacy of the substance ([8]; previous value 155 ± 8): 132 ± 10 mmHg/ml | LV dp/dt (maximum left ventricular pressure increase rate), efficacy of the substance ([8]; previous value 2345 ± 100): 1466 ± 189 mmHg/s
